{"source": "ChEMBL document CHEMBL1124051", "about": "(J Med Chem, 1988)"}
{"test_system": "not listed separately", "experiment": "(§1) Partition coefficient (logP)", "type": "physicochemical", "conditions": "octanol/water"}
{"smiles": "C[C@H]1[C@H]2Cc3ccc(O)cc3[C@]1(C)CCN2CC1CC1", "note": "[CYCLAZOCINE]", "logP": 0.97}
{"smiles": "CC1C2Cc3ccc(O)cc3C1(C)CCN2Cc1ccoc1", "note": "(stereo in doubt; form 2)", "logP": 2}
{"smiles": "CC1C2Cc3ccc(O)cc3C1(C)CCN2Cc1ccco1", "note": "(stereo in doubt; form 1)", "logP": 2.49}
{"smiles": "C=CCN1CCC2(C)c3cc(O)ccc3CC1C2C", "note": "(stereo in doubt; form 1)", "logP": 1.58}
{"test_system": "not listed separately", "experiment": "as §1", "type": "physicochemical", "conditions": "octanol/water; read-out: logP"}
{"smiles": "CN1CCC23c4c5ccc(O)c4OC2C(O)CCC3C1C5", "note": "(configuration not stated)", "logP": -0.51}
{"smiles": "CN1CCC23c4c5cccc4OC2C(=O)CCC3C1C5", "note": "(configuration not stated)", "logP": 0.4}
{"smiles": "C[C@H]1[C@@H]2Cc3ccc(O)cc3[C@]1(C)CCN2C", "note": "[METAZOCINE]", "logP": 0.47}
{"smiles": "C=CCN1CCC23CCCCC2C1Cc1ccc(O)cc13", "note": "(configuration not stated)", "logP": 2.14}
{"smiles": "CN1CCC23c4c5cccc4OC2C(=O)CCC3(O)C1C5", "note": "(configuration not stated)", "logP": -0.23}
{"smiles": "CN1CC[C@]23CCCC[C@H]2[C@H]1Cc1ccc(O)cc13", "note": "[LEVORPHANOL]", "logP": 1.03}
{"smiles": "CN1CCC23c4c5ccc(O)c4OC2C(=O)CCC3(O)C1C5", "note": "(configuration not stated)", "logP": -0.42}
{"smiles": "CN1CCC23c4c5cccc4OC2CCCC3C1C5", "note": "(configuration not stated)", "logP": 1.35}
{"smiles": "CN1CCC23c4c5cccc4OC2C(O)C=CC3C1C5", "note": "(configuration not stated)", "logP": 0.3}
{"smiles": "COc1ccc2c3c1O[C@H]1[C@@H](O)C=C[C@H]4[C@@H](C2)N(C)CC[C@@]341", "note": "[CODEINE]", "logP": 0.25}
{"smiles": "CC1C2Cc3ccc(O)cc3C1(C)CCN2Cc1ccoc1", "note": "(stereo in doubt; form 1)", "logP": 2.25}
{"smiles": "CC1C2Cc3ccc(O)cc3C1(C)CCN2Cc1ccco1", "note": "(stereo in doubt; form 2)", "logP": 2.68}
{"smiles": "C=CCN1CCC2(C)c3cc(O)ccc3CC1C2C", "note": "(stereo in doubt; form 2)", "logP": 1.73}
{"smiles": "C=CCN1CCC23c4c5ccc(O)c4OC2C(O)C=CC3C1C5", "note": "(configuration not stated)", "logP": 1.22}
{"smiles": "C=CCN1CCC23c4c5cccc4OC2C(O)CCC3C1C5", "note": "(configuration not stated)", "logP": 0.87}
{"molecular_target": "Mu-type opioid receptor (Rattus norvegicus) (UniProt P33535)", "sequence (P33535 whole entry)": "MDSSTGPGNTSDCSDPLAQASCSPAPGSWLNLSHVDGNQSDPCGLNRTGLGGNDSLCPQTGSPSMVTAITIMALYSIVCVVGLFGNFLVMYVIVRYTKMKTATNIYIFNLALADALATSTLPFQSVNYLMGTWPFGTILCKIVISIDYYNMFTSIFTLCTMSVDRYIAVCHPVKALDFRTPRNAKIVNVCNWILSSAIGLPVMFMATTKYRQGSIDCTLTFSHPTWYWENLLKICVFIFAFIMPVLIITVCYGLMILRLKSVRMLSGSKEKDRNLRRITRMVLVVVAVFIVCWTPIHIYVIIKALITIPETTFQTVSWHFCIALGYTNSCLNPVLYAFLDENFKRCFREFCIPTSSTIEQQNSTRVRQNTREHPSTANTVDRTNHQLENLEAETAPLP", "conditions": "Brain; Membrane"}
{"smiles": "C=CCN1CCC23CCCCC2C1Cc1ccc(O)cc13", "note": "(configuration not stated)", "KT": 21.6}
{"smiles": "CN1CC[C@]23CCCC[C@H]2[C@H]1Cc1ccc(O)cc13", "note": "[LEVORPHANOL]", "KT": 20.8}
{"smiles": "COc1ccc2c3c1O[C@H]1[C@@H](O)C=C[C@H]4[C@@H](C2)N(C)CC[C@@]341", "note": "[CODEINE]", "KT": 13.3}
{"smiles": "CN1CC[C@]23c4c5ccc(O)c4O[C@H]2[C@@H](O)C=C[C@H]3[C@H]1C5", "KT": 18.8}
{"molecular_target": "Mu-type opioid receptor (Rattus norvegicus) (UniProt P33535)", "conditions": "Brain; Membrane", "remark": "another data set of the same source"}
{"smiles": "C=CCN1CCC23CCCCC2C1Cc1ccc(O)cc13", "note": "(configuration not stated)", "Kp": 20.8}
{"smiles": "CN1CC[C@]23CCCC[C@H]2[C@H]1Cc1ccc(O)cc13", "note": "[LEVORPHANOL]", "Kp": 15.6}
{"smiles": "COc1ccc2c3c1O[C@H]1[C@@H](O)C=C[C@H]4[C@@H](C2)N(C)CC[C@@]341", "note": "[CODEINE]", "Kp": 11.4}
{"smiles": "CN1CC[C@]23c4c5ccc(O)c4O[C@H]2[C@@H](O)C=C[C@H]3[C@H]1C5", "Kp": 12.6}
